Results as given in the NIST ThermoML archive (doi:10.1016/j.jct.2005.09.004).

Tests used:
[1] = xn = mol fraction of the nth substance listed; conditions: for surface tension liquid-gas: Drop volume; for mass density: 101 kPa, Liquid
[2] = refractive index (Na D-line) (dimensionless); φn = volume fraction of the nth substance listed; conditions: 101 kPa, Liquid, Standard Abbe refractometry

C1COCCO1 [1,4-dioxane] + C1CCCCC1
Conditions | mass density [kg/m3] | refractive index | surface tension liquid-gas [mN/m]
[1], 283.15 K, x1 = 0.0502 | 796.53 | – | –
[1], 283.15 K, x1 = 0.0684 | – | – | 26.1
[1], 283.15 K, x1 = 0.0999 | 805.45 | – | –
[1], 283.15 K, x1 = 0.1484 | – | – | 25.94
[1], 283.15 K, x1 = 0.1953 | 823.9 | – | –
[1], 283.15 K, x1 = 0.2267 | – | – | 25.85
[1], 283.15 K, x1 = 0.2899 | 843.69 | – | –
[1], 283.15 K, x1 = 0.2974 | – | – | 25.97
[1], 283.15 K, x1 = 0.3996 | 868.5 | – | –
[1], 283.15 K, x1 = 0.4402 | – | – | 26.2
[1], 283.15 K, x1 = 0.5017 | 893.36 | – | –
[1], 283.15 K, x1 = 0.5509 | – | – | 26.51
[1], 283.15 K, x1 = 0.6007 | 919.28 | – | –
[1], 283.15 K, x1 = 0.6578 | – | – | 27.08
[1], 283.15 K, x1 = 0.699 | 946.87 | – | –
[1], 283.15 K, x1 = 0.7394 | – | – | 27.97
[1], 283.15 K, x1 = 0.7956 | 976.06 | – | –
[1], 283.15 K, x1 = 0.8115 | – | – | 29.3
[1], 283.15 K, x1 = 0.8994 | 1009.7 | – | –
[1], 283.15 K, x1 = 0.9186 | – | – | 32
[1], 283.15 K, x1 = 0.9446 | 1025.26 | – | –
[1], 283.15 K, x1 = 0.9738 | – | – | 33.93
[1], 298.15 K, x1 = 0.0535 | 782.54 | – | –
[1], 298.15 K, x1 = 0.0684 | – | – | 25.1
[1], 298.15 K, x1 = 0.1053 | 791.71 | – | –
[1], 298.15 K, x1 = 0.1484 | – | – | 25.24
[1], 298.15 K, x1 = 0.1998 | 809.79 | – | –
[1], 298.15 K, x1 = 0.2267 | – | – | 25.29
[1], 298.15 K, x1 = 0.2974 | – | – | 25.38
[1], 298.15 K, x1 = 0.3003 | 830.58 | – | –
[1], 298.15 K, x1 = 0.4026 | 853.43 | – | –
[1], 298.15 K, x1 = 0.4402 | – | – | 25.72
[1], 298.15 K, x1 = 0.5006 | 876.98 | – | –
[1], 298.15 K, x1 = 0.5509 | – | – | 26.07
[1], 298.15 K, x1 = 0.5971 | 901.85 | – | –
[1], 298.15 K, x1 = 0.6578 | – | – | 26.62
[1], 298.15 K, x1 = 0.7028 | 931.22 | – | –
[1], 298.15 K, x1 = 0.7394 | – | – | 27.1
[1], 298.15 K, x1 = 0.8089 | 963.35 | – | –
[1], 298.15 K, x1 = 0.8115 | – | – | 28
[1], 298.15 K, x1 = 0.9038 | 994.24 | – | –
[1], 298.15 K, x1 = 0.9186 | – | – | 30.26
[1], 298.15 K, x1 = 0.9485 | 1009.6 | – | –
[1], 298.15 K, x1 = 0.9738 | – | – | 31.99
[1], 313.15 K, x1 = 0.0497 | 767.71 | – | –
[1], 313.15 K, x1 = 0.0684 | – | – | 23.8
[1], 313.15 K, x1 = 0.102 | 776.79 | – | –
[1], 313.15 K, x1 = 0.1484 | – | – | 24.23
[1], 313.15 K, x1 = 0.1944 | 794 | – | –
[1], 313.15 K, x1 = 0.2267 | – | – | 24.46
[1], 313.15 K, x1 = 0.2926 | 813.99 | – | –
[1], 313.15 K, x1 = 0.2974 | – | – | 24.71
[1], 313.15 K, x1 = 0.3973 | 837 | – | –
[1], 313.15 K, x1 = 0.4402 | – | – | 25.23
[1], 313.15 K, x1 = 0.4969 | 860.64 | – | –
[1], 313.15 K, x1 = 0.5509 | – | – | 25.7
[1], 313.15 K, x1 = 0.5992 | 886.73 | – | –
[1], 313.15 K, x1 = 0.6578 | – | – | 26.2
[1], 313.15 K, x1 = 0.6988 | 914.22 | – | –
[1], 313.15 K, x1 = 0.7394 | – | – | 26.62
[1], 313.15 K, x1 = 0.7966 | 943.29 | – | –
[1], 313.15 K, x1 = 0.8115 | – | – | 27.13
[1], 313.15 K, x1 = 0.8972 | 975.49 | – | –
[1], 313.15 K, x1 = 0.9186 | – | – | 28.62
[1], 313.15 K, x1 = 0.9505 | 993.41 | – | –
[1], 313.15 K, x1 = 0.9738 | – | – | 30.17
[2], 283.15 K, φ1 = 0.0478 | – | 1.4305 | –
[2], 283.15 K, φ1 = 0.075 | – | 1.42987 | –
[2], 283.15 K, φ1 = 0.1601 | – | 1.42827 | –
[2], 283.15 K, φ1 = 0.251 | – | 1.4271 | –
[2], 283.15 K, φ1 = 0.3438 | – | 1.42629 | –
[2], 283.15 K, φ1 = 0.4452 | – | 1.42577 | –
[2], 283.15 K, φ1 = 0.5448 | – | 1.42557 | –
[2], 283.15 K, φ1 = 0.649 | – | 1.42556 | –
[2], 283.15 K, φ1 = 0.756 | – | 1.42585 | –
[2], 283.15 K, φ1 = 0.8802 | – | 1.42643 | –
[2], 283.15 K, φ1 = 0.9414 | – | 1.4268 | –
[2], 298.15 K, φ1 = 0.0319 | – | 1.4226 | –
[2], 298.15 K, φ1 = 0.0849 | – | 1.42144 | –
[2], 298.15 K, φ1 = 0.1562 | – | 1.42012 | –
[2], 298.15 K, φ1 = 0.2528 | – | 1.41893 | –
[2], 298.15 K, φ1 = 0.3465 | – | 1.41821 | –
[2], 298.15 K, φ1 = 0.4415 | – | 1.4178 | –
[2], 298.15 K, φ1 = 0.5389 | – | 1.4177 | –
[2], 298.15 K, φ1 = 0.651 | – | 1.41786 | –
[2], 298.15 K, φ1 = 0.7604 | – | 1.41827 | –
[2], 298.15 K, φ1 = 0.8701 | – | 1.41893 | –
[2], 298.15 K, φ1 = 0.9439 | – | 1.41949 | –
[2], 313.15 K, φ1 = 0.0381 | – | 1.41404 | –
[2], 313.15 K, φ1 = 0.0816 | – | 1.41308 | –
[2], 313.15 K, φ1 = 0.1625 | – | 1.41168 | –
[2], 313.15 K, φ1 = 0.268 | – | 1.41055 | –
[2], 313.15 K, φ1 = 0.3476 | – | 1.41002 | –
[2], 313.15 K, φ1 = 0.4399 | – | 1.40973 | –
[2], 313.15 K, φ1 = 0.5368 | – | 1.40971 | –
[2], 313.15 K, φ1 = 0.6463 | – | 1.41003 | –
[2], 313.15 K, φ1 = 0.7626 | – | 1.41069 | –
[2], 313.15 K, φ1 = 0.8682 | – | 1.41143 | –
[2], 313.15 K, φ1 = 0.9462 | – | 1.4121 | –
